TR-FRET signal data for 53 compounds are collected here from patent US20240246941A1, “SUBSTITUTED 4-(3-AMINOPROP-1-YL)AMINOQUINOLINE ANALOGS AS MODULATORS OF MELANOMA-ASSOCIATED ANTIGEN 11 UBIQUITIN LIGASE” (ST. JUDE CHILDREN'S RESEARCH HOSPITAL, INC., priority 2020, published 2024).

Sequence of MAGE-A11:PCF11 (P43364 218-429): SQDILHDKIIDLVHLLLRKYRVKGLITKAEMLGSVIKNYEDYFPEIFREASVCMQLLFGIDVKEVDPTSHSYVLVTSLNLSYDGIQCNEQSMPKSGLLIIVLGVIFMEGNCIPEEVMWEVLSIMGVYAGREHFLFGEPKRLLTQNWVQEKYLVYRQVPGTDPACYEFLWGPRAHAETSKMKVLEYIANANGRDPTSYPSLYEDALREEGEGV

One test addresses MAGE-A11:PCF11 (Homo sapiens (Human), UniProt P43364). Nature of the test: TR-FRET single point screening at 15 μM. Format: binding. Details: unit not given here. As to conditions: single point TR-FRET screening at 15 μM against MAGE-A11:PCF11. The text has this: TR-FRET Assays and High-throughput Screen. Terbium-anti-GST antibody, 1 M Tris pH 7.5 1 M MgCl2 and 1 M DTT were purchased from Invitrogen (Carlsbad, CA), BSA was purchased from Sigma (St. Louis, MO). Dimethyl sulfoxide (DMSO) was purchased from Fisher Scientific (Pittsburgh, PA). Black 384-well low volume plates and 384-well polypropylene compound plates were purchased from Corning Incorporated (Tewksbury, MA). The St. Jude FDA drug and Bioactive library (11,293 chemicals), Drug-like library (10,073 chemicals) and Lead-like library (10,041 chemicals) were custom assembled and purchased from commercial sources including Sigma, Microsource (Gaylordsville, CT), selleckchem (Houston, TX), ChemDiv (San Diego, CA), ChemBridge (San Diego, CA), Enamine (Monmouth Jct., NJ), and Life Chemicals (Niagara-on-the-Lake, ON, Canada). They were arrayed (10 mM in DMSO) in 384-well polypropylene compound plates with columns 1, 2, 13 and 14 empty which were reserved for controls.
The TR-FRET assay buffer with a formula of 50 mM Tris pH 7.5, 20 mM MgCl2, 0.1 mg/ml BSA and 1 mM DTT was freshly prepared before each experiment. All TR-FRET assays were performed in black 384-well plates with 20 μl/well assay volume in the TR-FRET assay buffer at room temperature (approximately 25° C.). All peptides or compounds were solubilized in DMSO. To test the competitive activity of peptides or compounds against the interaction between GST-MAGEA11 MHD and FAM-PCF11_4 peptide, 10 μl/well peptide or compound at specified concentration was dispensed into a black 384-well low volume plate, followed by 5 μl/well FAM-PCF11_4 (800 nM), 5 μl/well Tb-anti-GST (20 nM) and GST-MAGEA11 MHD (20 nM). The assay components in each well was then mixed by shaking the plate on an IKA MTS 2/4 digital microtiter plate shaker (IKA Works; Wilmington, NC, USA) at 900 RPM for 1 minute. The plate was further centrifuged in an Eppendorf 5810 centrifuge with an A-4-62 swing-bucket rotor (Eppendorf AG, Hamburg, Germany) at 201 g (1000 rpm) for 30 seconds. The plate was then incubated for 90 min with a lid to avoid light exposure to the assay components. After incubation, the fluorescent emission signals at 520 nm and 490 nm channels of individual wells were measured with a PHERAstar FS plate reader (BMG Labtech; Durham, NC, USA) by using a 340 nm excitation filter, 100 μs delay time, and 200 μs integration time. The TR-FRET fluorescence emission ratio (TR-FRET signal) for each well was presented as 10 000×520 nm/490 nm, which was used directly for curve fitting, or further converted to % Inhibition based on the respective positive and negative controls. The graphic software GraphPad Prism 4.81 (GraphPad Software; La Jolla, CA, USA) was used to generate curves and derive IC50 values of tested peptides or compounds, if applicable.
TR-FRET screen for identifying MAGEA11 small molecule inhibitors was performed as follows. The primary one-concentration screening and subsequent 10 or 20-concentration dose response tests were accomplished with an automated High Throughput Screening system (HighRes Biosolutions, Beverly, MA)^30. In the primary screening, 15 μl/well FAM-PCF11_4 (267 nM) was first dispensed with a Multidrop Combi Reagent Dispenser (Thermo Fisher Scientific, Waltham, MA) to black 384-well low volume assay plates. The plates were spun down with a Velocity11 VSpin microplate centrifuge (Agilent Technologies, Santa Clara, CA). 30 nl/well of 10 mM compound/DMSO solutions, or DMSO alone, were transferred from compound plates (the St. Jude FDA drug and bioactive library, Drug-like library and Lead-like library) or a control plate to the assay plates with a Pin Tool (V&P Scientific, San Diego, CA). The compounds were arrayed in columns 3 to 12 and columns 15 to 24 of compound plates. The controls were arrayed in columns 1, 2, 13 and 14 of a compound plate. […]
As to `COc1ccc2nc3cc(Cl)ccc3c(NCCCNCc3c(F)cccc3C(F)(F)F)c2c1` [SJ000520999], the TR-FRET signal is reported as −116.7.

Compound `CCCN(CCCNc1c2ccc(Cl)cc2nc2ccc(OC)cc12)Cc1ccccc1C(=O)O` [SJ000520951] came in with a TR-FRET signal of −258.6.

The compound `COc1ccc2nc3cc(Cl)ccc3c(NCCCNCc3nccn3C)c2c1` [SJ000521006] registered a TR-FRET signal of −279.9. Same read-out and setting: for `Cc1ccc(CN(CCCCNc2ccnc3cc(Cl)ccc23)Cc2ccccc2)o1` [SJ000312682] the value was 2.013; for `Cc1ccc(S(=O)(=O)c2cnc3ccccc3c2N2CCN(c3ccc(C)cc3C)CC2)cc1` [SJ000117080], 3.172. The same measure, in the same setting: then `O=S(=O)(c1ccccc1)c1cnc2ccc(Cl)cc2c1N1CCN(c2ccccc2F)CC1` [SJ000315176], with −5.441. On the same count and under the same terms, then `O=[N+]([O-])c1cccc(CN2CCC(Nc3ccnc4cc(Cl)ccc34)CC2)c1` [SJ000523095], with 0.8927; and `COc1ccc2nc3cc(Cl)ccc3c(NCCCNCc3ccc(OC(F)(F)F)cc3)c2c1` [SJ000520992], with −201; and `Cc1ccc(CN(CCCCNc2ccnc3cc(Cl)ccc23)Cc2ccccc2)s1` [SJ000312687], with 20.71. `CCCN(CCCCNc1ccnc2cc(Cl)ccc12)Cc1ccc[nH]1` [SJ000311198] showed a TR-FRET signal of −0.9977. The same measure, in the same setting: then `CCCN(CCCNc1c2ccc(Cl)cc2nc2ccc(OC)cc12)Cc1ccc(OC)c(F)c1` [SJ000522963], with −177.5; and `Cc1ccc(C)c(N2CCN(c3c(S(=O)(=O)c4ccccc4)cnc4ccc(F)cc34)CC2)c1` [SJ000117083], with −15.38; and `CCOC(=O)c1ccc2ncc(C(=O)OCC)c(NCCN3CCOCC3)c2c1` [SJ000031347], with 0.6542.

`COc1ccc(S(=O)(=O)c2cnc3cc(OC)c(OC)cc3c2N2CCN(C)CC2)cc1` [SJ000083955]: the TR-FRET signal was 0.8227. Same read-out and setting: then `CCCN(CCCNc1c2ccc(Cl)cc2nc2ccc(OC)cc12)Cc1c[nH]c2ccccc12` [SJ000522978], with −166.2; and `Clc1ccc2c(NCCCCN(Cc3ccccc3)Cc3ccc[nH]3)ccnc2c1` [SJ000312692], with 28.28; and `CCOc1ccc2ncc(S(=O)(=O)c3ccc(Cl)cc3)c(N3CCN(c4ccccc4)CC3)c2c1` [SJ000117054], with −446.9. Still for that read-out and setting: for `CCOC(=O)c1cnc2c(Cl)cccc2c1NCCN1CCOCC1` [SJ000163436] the value was −6.529; for `CCc1ccc2ncc(S(=O)(=O)c3ccc(Cl)cc3)c(N3CCN(CC)CC3)c2c1` [SJ000083968], −19.13; for `CCOc1ccc2ncc(C(=O)c3ccccc3)c(N3CCN(CC)CC3)c2c1` [SJ000247283], −0.2733. `CN1CCN(c2c(S(=O)(=O)c3ccccc3)cnc3ccc(Cl)cc23)CC1` [SJ000083950] gave a TR-FRET signal of −5.374. Still for that read-out and setting: then `O=S(=O)(c1ccccc1)c1cnc2ccc(F)cc2c1N1CCN(Cc2ccccc2)CC1` [SJ000247257], with −62.28. Same read-out and setting: for `Clc1ccc2c(NCCCCN(Cc3ccccc3)Cc3ccc4ccccc4c3)ccnc2c1` [SJ000361205] the value was 24.64. `Clc1ccc2c(NC3CCN(Cc4ccc5c(c4)OCO5)CC3)ccnc2c1` [SJ000523087] displayed a TR-FRET signal of 7.643. On the same count and under the same terms, then `FC(F)(F)c1ccccc1CN(CCCCNc1ccnc2cc(Cl)ccc12)Cc1ccccc1` [SJ000361192], with 27.82.

The test is the same for the next values; noted with them: single point TR-FRET screening of quinoline compounds against MAGE-A11:PCF11; 15 μM.
Take `CCCN(CCCNc1ccnc2cc(C(F)(F)F)ccc12)Cc1ccc(Cl)cc1Cl` [SJ000523078]: the TR-FRET signal stood at 3.83. On the same count and under the same terms, then `CCCN(CCCNc1ccnc2cc(Cl)ccc12)Cc1ccc(-c2ccccc2)cc1` [SJ000523039], with 30.23; and `CCCN(CCCNc1ccnc2cc(Cl)ccc12)Cc1cc(OC(F)(F)F)ccc1OC` [SJ000523011], with 15.67. On the same count and under the same terms, then `CCCN(CCCNc1ccnc2cc(Cl)ccc12)Cc1ccc2[nH]ccc2c1` [SJ000522746], with 96.84.

Regarding `FC(F)(F)c1cccc(Cc2ccc3c(NCCCNCc4ccco4)ccnc3c2)c1` [SJ000311298], the TR-FRET signal was 27.01.

On to `CCCN(CCCNc1c2ccc(Cl)cc2nc2ccc(OC)cc12)Cc1cccc([N+](=O)[O-])c1` [SJ000520948], for which the TR-FRET signal was −10.74. The same measure, in the same setting: for `CCCCCCNCCCNc1ccnc2cc(Cl)ccc12` [SJ000361120] the value was 22.25; for `CCCN(CCCNc1ccnc2cc(Cl)ccc12)Cc1ccc(-c2cccc(Cl)c2)o1` [SJ000523045], 16.23; for `Cn1cccc1CNCCCNc1ccnc2cc(C(F)(F)F)ccc12` [SJ000521041], −6.879. `CCCN(CCCNc1c2ccc(Cl)cc2nc2ccc(OC)cc12)Cc1cccc2ccccc12` [SJ000520952] gave a TR-FRET signal of −40.77. Same read-out and setting: for `CCCN(CCCNc1ccnc2cc(C(F)(F)F)ccc12)Cc1scnc1C` [SJ000575179] the value was 5.164. Still for that read-out and setting: then `Clc1ccc2c(NCCCN(Cc3ccccc3)CC3CC=CCC3)ccnc2c1` (centres unmarked) [SJ000311182], with 16.09. Same read-out and setting: then `CCCN(CCCNc1ccnc2cc(C(F)(F)F)ccc12)Cc1nc2ccccc2s1` [SJ000520484], with 7.404; and `Clc1ccc2c(NCCCN(Cc3ccccc3)Cc3ccc[nH]3)ccnc2c1` [SJ000522717], with 20.46; and `CC(C)(C)CCNCCCNc1ccnc2cc(Cl)ccc12` [SJ000521026], with 9.225. In turn, `c1coc(CNCCCNc2ccnc3cc(-c4cccc5ccccc45)ccc23)c1` [SJ000311274] returned a TR-FRET signal of 41.57. Same read-out and setting: for `CCCN(CCCNc1c2ccc(Cl)cc2nc2ccc(OC)cc12)Cc1ccccc1OC(F)(F)F` [SJ000522961] the value was 22.69. As to `CCCN(CCCNc1ccnc2cc(Cl)ccc12)Cc1ncc[nH]1` [SJ000523008], the TR-FRET signal came to 4.165.

`CCCN(CCCNc1c2ccc(Cl)cc2nc2ccc(OC)cc12)Cc1c(F)cccc1C(F)(F)F` [SJ000522968]: the TR-FRET signal came to 23.09. For `CN(C)CCCNc1c2c(nc3ccccc13)CCC2` [SJ000029259], the TR-FRET signal is recorded as 24.05. Same read-out and setting: for `CCCN(CCCNc1ccnc2cc(Cl)ccc12)Cc1ccco1` [SJ000357458] the value was 3.483; for `CCCN(CCCNc1c2ccc(Cl)cc2nc2ccc(OC)cc12)Cc1ccc(Cl)cc1Cl` [SJ000520956], 9.598; for `CCCN(CCCNc1c2ccc(Cl)cc2nc2ccc(OC)cc12)Cc1cc(Br)cs1` [SJ000522989], −56.7. On the same count and under the same terms, for `COc1ccc(CN(CCCNc2ccnc3cc(Cl)ccc23)Cc2ccccc2)cc1F` [SJ000520437] the value was 23.65; for `CCCN(CCCNc1ccnc2cc(Cl)ccc12)Cc1sccc1C` [SJ000357439], 19.73; for `COc1ccc(CN(CCCNc2ccnc3cc(Cl)ccc23)Cc2ccccc2)cc1` [SJ000522720], 11.78.

`Clc1ccc2c(NCCCN(Cc3ccccc3)Cc3ccccc3)ccnc2c1` [SJ000361166]: the TR-FRET signal amounted to 14.76. The same measure, in the same setting: then `CCCN(CCCNc1ccnc2cc(Cl)ccc12)Cc1ccoc1` [SJ000357442], with 6.214.
